Measurements taken from US20090221488A1, “Certain Compositions and Methods of Treatment” (priority 2005, published 2009).
Read-outs that look alike come from different tables or passages of the source.

Key:
[1] = tested on: OVCAR-3 human tumor xenograft
[2] = tested on: broad spectrum of tumor cell lines; assay: Cytotoxic activity in tumor cell lines; assay type: cell-based
[3] = tested on: SK-MES human tumor xenograft
[4] = tested on: MDA-MB-231 human tumor xenograft
P388 (murine) = assay: Cellular activity, P388; assay type: cell-based
[5] = Dose-escalation Phase I study in patients with solid tumors; assay type: in vivo
From the text: In this study, the ANC generally achieved a nadir at Day 7-8 and had completely recovered by Day 15.

[6] = In vivo rat micronucleus study; conditions: all doses tested (≧3 mg/m^2 administered daily×2)
From the text: (§1) Positive findings are consistent with the expected pharmacology of Compound A.

[7] = target: human P-glycoprotein (Pgp) (Homo sapiens, UniProt P08183); conditions: MDCKII-MDR1 cells
MV522 = assay: Cellular activity, MV522; assay type: cell-based
[8] = tested on: rat, dog, rabbit and human blood; assay: In vitro hemolysis on mixing with blood
From the text: Hemolysis was not observed in any of the in vivo studies, nor has it been observed in the ongoing Phase I trial.

[9] = tested on: H69 human tumor xenograft
mouse lymphoma = assay: Mouse lymphoma mutagenicity assay; assay type: cell-based; conditions: in vitro mouse lymphoma mutagenicity assay
From the text: as §1

[10] = tested on: murine P388 lymphocytic leukaemia; assay: P388 lymphocytic leukaemia model, dosing schedule study; assay type: in vivo
From the text: More frequent administration of the compound was poorly tolerated and dictated a lower total dose. […] At doses equivalent to either ¼ or ½ the MTD, % ILS and NCK were reduced.

[11] = tested on: MV 522 human lung carcinoma xenograft; assay: MV 522 xenograft tumor model; assay type: in vivo, nude mice; conditions: i.p. q4d×3, up to the MTD
HT29 = assay: Cellular activity, HT29; assay type: cell-based
[12] = tested on: A2780 human tumor xenograft
[13] = Tolerability (MTD) of Compound A and bortezomib in nude mice; assay type: in vivo
Experimental: (§2) Finally, tolerability and efficacy studies were conducted in which HT29 tumors maintained by serial passage were implanted subcutaneously in 9-10 weeks old female athymic no/nu mice (Harlan) Twenty-one (21) days post-implantation, when tumors reached 63-196 mm^3, mice were randomized into cohorts of […] with mean tumor volumes ˜100 mm^3. […] Drugs were delivered on the indicated schedules at 10 ml/kg by i.p. injection, except paclitaxel, which was administered by intravenous injection. Tumors were measured twice weekly and mice euthanized when tumor reached 1000 mm^3 or at day 59. Mice were weighed twice weekly. Acceptable toxicity was defined as body weight loss of <20% and ≦1 treatment-related death among ten treated animals. Toxicity exceeding these levels was considered above MTD.

[14] = tested on: MX-1 mammary carcinoma xenograft; conditions: i.p. q4d×3
Mouse KSP = Mouse KSP (Mus musculus, UniProt Q6P9P6); assay: Kinesin affinity, mouse KSP; assay type: binding
Other kinesins = assay: Kinesin affinity, other kinesins; assay type: binding
[15] = tested on: MCF-7 human tumor xenograft
Colo205 = assay: Cellular activity, Colo205; assay type: cell-based
[16] = Preclinical toxicology in dogs, 1-hr IV infusion; assay type: in vivo, dog
Experimental: Doses up to 40 mg/m^2 were tested in a single dose-range finding study and doses of 5, 10 and 20 mg/m^2 were tested in a 3-week (once weekly) toxicology study. Drug-related findings occurred at all dose levels, but severity and incidence were generally dose-proportional. […] In dogs given ≧10 mg/m^2, clinical observations of gastrointestinal (GI) disturbances included vomiting/retching, fecal abnormalities, hypoactivity, anorexia and body weight losses. […] Based on these findings, the highest non-severely toxic dose in the dog is 10 mg/m^2.

[17] = tested on: Colo205 colon carcinoma xenograft; assay: Colo205 xenograft tumor model; assay type: in vivo, nude mice
SKOV3 = assay: Cellular activity, SKOV3; assay type: cell-based
In vitro Ames test = assay type: cell-based
From the text: as §1

HT29 tumor xenografts = assay: HT29 tumor xenograft efficacy, Compound A and bortezomib alone and combined; assay type: in vivo, female athymic nu/nu mice; conditions: for TGD, second arm, single agents: 1.5 mg/kg bortezomib and 10 mg/kg Compound A as printed; for mean tumor growth delay (TGD): 1.5 mg/kg bortezomib, 10 mg/kg Compound A, q4d×3; for mean time to endpoint (TTE), tumor volume=1000 mm^3: single agents (at MTD for bortezomib and Compound A)
Experimental: as §2
(§3) Anti-tumor activity of sequenced (24 hour offset, q4d×3) and simultaneous administration was explored in HT29 tumor xenografts.
as §3

[18] = tested on: HT 29 chemo-refractory colon carcinoma xenograft
MX1 = assay: Cellular activity, MX1; assay type: cell-based
[19] = Preclinical toxicology in rats, 1, 6 and 24-hr IV infusion; assay type: in vivo, rat; conditions: for dose at which mortality occurred: 24-hr infusion
From the text: Transient drug-related findings occurred at all doses, but severity and incidence were generally dose proportional and dependent on the duration of infusion. Most consistent findings included hematopoeitic toxicity (depletion in bone marrow and thymus and associated hematologic changes) and enteropathy (necrosis/regeneration of intestinal crypt epithelium and villus atrophy and body weight loss or decrease in body weight gain). Microscopic changes (necrosis, apoptosis and/or cellular degeneration) were also evident in liver, mammary glands, testes and epididymus, and at ≧36 mg/m^2, increased mitotic figures in many tissues. All drug-related toxicities completely reversed 2 weeks after dosing, with the exception of degenerative testicular changes at ≧18 mg/m^2. In the 1 to 6-hr infusion studies, there was no mortality, however based on the severity of hematopoietic and gastrointestinal toxicities, the MTD was 72 mg/m^2. When the infusion was increased to 24-hr, mortality occurred at 18 mg/m^2 after a single dose and at 12 mg/m^2 after repeated weekly dosing.

[20] = target: P-glycoprotein (Pgp, MDR1) (Homo sapiens, UniProt P08183); assay: in vitro
[21] = Q21 days, patients with solid tumors
[22] = i.p., q4d×3 schedule, at the MTD
[23] = rat, 1 to 6-hr infusion studies

Sequence of human P-glycoprotein (Pgp) (P08183 whole entry): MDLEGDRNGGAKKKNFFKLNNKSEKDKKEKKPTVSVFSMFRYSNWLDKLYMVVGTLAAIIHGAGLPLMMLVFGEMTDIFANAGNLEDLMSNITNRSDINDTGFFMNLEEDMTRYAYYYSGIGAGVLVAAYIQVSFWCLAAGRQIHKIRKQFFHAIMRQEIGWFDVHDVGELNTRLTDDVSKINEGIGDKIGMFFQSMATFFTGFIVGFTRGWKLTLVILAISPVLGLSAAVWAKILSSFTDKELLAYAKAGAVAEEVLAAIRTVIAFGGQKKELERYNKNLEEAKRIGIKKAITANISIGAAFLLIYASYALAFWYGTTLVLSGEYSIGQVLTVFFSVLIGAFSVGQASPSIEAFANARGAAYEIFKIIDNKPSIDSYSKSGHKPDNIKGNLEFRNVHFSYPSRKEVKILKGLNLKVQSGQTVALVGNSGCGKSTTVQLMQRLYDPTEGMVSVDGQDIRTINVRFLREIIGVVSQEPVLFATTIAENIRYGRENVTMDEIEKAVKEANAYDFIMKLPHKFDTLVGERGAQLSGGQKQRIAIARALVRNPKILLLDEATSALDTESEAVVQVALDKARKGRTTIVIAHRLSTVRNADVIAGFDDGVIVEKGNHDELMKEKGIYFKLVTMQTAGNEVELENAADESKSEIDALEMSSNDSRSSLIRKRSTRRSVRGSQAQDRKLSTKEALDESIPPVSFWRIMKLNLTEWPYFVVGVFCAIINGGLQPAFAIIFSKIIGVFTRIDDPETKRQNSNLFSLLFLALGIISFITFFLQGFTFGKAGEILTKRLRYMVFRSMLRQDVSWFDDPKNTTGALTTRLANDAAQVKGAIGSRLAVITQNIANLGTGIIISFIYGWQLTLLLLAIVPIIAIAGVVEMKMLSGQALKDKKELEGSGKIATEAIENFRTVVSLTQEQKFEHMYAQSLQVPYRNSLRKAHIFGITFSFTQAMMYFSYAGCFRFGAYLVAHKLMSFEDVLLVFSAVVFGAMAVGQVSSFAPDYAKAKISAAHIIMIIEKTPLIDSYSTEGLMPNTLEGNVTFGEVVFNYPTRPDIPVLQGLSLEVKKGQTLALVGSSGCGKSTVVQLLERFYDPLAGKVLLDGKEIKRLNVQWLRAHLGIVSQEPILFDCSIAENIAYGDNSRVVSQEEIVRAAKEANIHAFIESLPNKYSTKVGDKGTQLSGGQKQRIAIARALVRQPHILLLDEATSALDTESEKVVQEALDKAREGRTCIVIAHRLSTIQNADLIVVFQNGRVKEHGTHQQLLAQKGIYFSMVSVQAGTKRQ
Sequence of Mouse KSP (Q6P9P6 whole entry): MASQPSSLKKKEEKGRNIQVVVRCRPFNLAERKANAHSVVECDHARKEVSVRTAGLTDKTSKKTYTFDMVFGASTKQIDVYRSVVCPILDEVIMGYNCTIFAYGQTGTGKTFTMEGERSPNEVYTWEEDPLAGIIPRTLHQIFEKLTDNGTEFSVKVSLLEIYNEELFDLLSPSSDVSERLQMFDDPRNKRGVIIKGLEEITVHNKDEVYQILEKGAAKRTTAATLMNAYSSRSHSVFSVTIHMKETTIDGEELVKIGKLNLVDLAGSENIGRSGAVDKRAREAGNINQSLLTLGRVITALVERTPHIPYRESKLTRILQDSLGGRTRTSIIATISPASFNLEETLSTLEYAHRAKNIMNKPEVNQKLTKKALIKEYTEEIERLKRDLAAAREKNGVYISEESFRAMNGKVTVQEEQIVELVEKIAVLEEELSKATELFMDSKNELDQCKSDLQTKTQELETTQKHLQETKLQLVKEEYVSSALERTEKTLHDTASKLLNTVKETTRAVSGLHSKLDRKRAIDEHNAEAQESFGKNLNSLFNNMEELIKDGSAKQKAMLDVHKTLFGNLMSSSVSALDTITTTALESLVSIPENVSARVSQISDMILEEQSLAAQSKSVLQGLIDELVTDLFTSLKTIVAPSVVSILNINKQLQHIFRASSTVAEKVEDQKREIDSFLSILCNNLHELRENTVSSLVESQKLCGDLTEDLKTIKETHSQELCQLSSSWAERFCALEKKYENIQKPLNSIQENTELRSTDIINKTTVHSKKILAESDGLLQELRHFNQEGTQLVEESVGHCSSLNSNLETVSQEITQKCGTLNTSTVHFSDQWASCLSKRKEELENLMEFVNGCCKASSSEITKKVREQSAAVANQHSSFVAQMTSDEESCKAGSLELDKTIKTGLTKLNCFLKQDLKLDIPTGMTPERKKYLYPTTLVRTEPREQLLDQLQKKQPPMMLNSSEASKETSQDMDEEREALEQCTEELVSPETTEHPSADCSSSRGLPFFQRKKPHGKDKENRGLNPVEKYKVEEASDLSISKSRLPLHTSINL
Sequence of P-glycoprotein (Pgp, MDR1) (P08183 whole entry): as the sequence (P08183 whole entry) above

## Cc1ccc(C(=O)N(CCCN)[C@@H](c2oc3cc(Cl)ccc3c(=O)c2Cc2ccccc2)C(C)C)cc1 [Compound A, N-(3-Aminopropyl)-N—[(R)-1-3-benzyl-7-chloro-4-oxo-4H-chromen-2-yl-2-methyl-propyl]-4-methyl-benzamide]
[1]
  single agent activity against advanced xenograft: complete and partial regressions
[2]
  cytotoxic activity: less than 2 nM
[3]
  single agent activity against advanced xenograft: complete and partial regressions
[4]
  single agent activity against advanced xenograft: tumor growth delay
P388 (murine)
  IC50: 14.4 nM
[5]; 4 mg/m^2
  patients with dose-limiting toxicity (Grade 3 hypophosphatemia, not thought to be drug-related): 1 of the first 6 patients
[5]; Phase I, Q21 days
  day of ANC nadir: 7 to 8 days
  day of ANC recovery: ≤ 15 days
[5]; Phase I, one hour infusion every 21 days
  neurotoxicity, mucositis, thrombocytopenia, alopecia, and nausea vomiting requiring pre-medication: have not been observed
[5]; [21]
  most commonly occurring dose-limiting toxicity: Prolonged (≧5 days), reversible neutropenia
  presumptive maximum tolerated dose (MTD): 4 mg/m^2
[5]; single one hour infusion every 21 days
  dose eliciting Grade 4 neutropenia lasting ≧5 days: ≥ 5 mg/m^2
[6]
  micronucleus result: positive results as an aneugen
[7]
  Pgp substrate: is a Pgp substrate
  average P7.4: 2.5 ×10⁻⁶ cm/s
  passive membrane permeability: < 5 ×10⁻⁶ cm/s
MV522
  IC50: 1.7 nM
[8]; at 0.3 mg/mL
  hemolysis: no hemolysis was observed
[8]; mixed with rat, dog, rabbit and human blood
  hemolytic concentration: ≥ 0.6 mg/mL
[9]
  single agent activity against advanced xenograft: complete and partial regressions
Mouse lymphoma
  genotoxic activity: did not show evidence of genotoxic activity
[10]; doses equivalent to ¼ or ½ the MTD
  % ILS and NCK: reduced
[10]; [22]
  mean (±SEM) % increase in lifespan (ILS): 156±10%
  net cell kill (NCK): 2.9±0.5 logs
[11]
  tumor response: refractory
HT29
  IC50: 1.9 nM
[12]
  single agent activity against advanced xenograft: tumor growth delay
[13]; i.p.
  single agent MTD (q4d×3): about 10 mg/kg
[14]
  tumor regressions: did not induce any tumor regressions
[14]; time differential to tumor volume 1000 mm^3
  tumor growth delay (T-C1000): 10 days
Mouse KSP
  Ki: 0.12 nM
Other kinesins
  Ki: > 70000 nM
[15]
  single agent activity against advanced xenograft: complete and partial regressions
Colo205
  IC50: 0.07 nM
[16]; Day 4 after a single 1-hr IV infusion of 20 mg/m^2
  animals euthanized in moribund condition: One of 10 dogs
[16]; dog, 1-hr IV infusion
  dose with clinical observations of gastrointestinal (GI) disturbances: ≥ 10 mg/m^2
[16]; dog, 1-hr IV infusion, once weekly for 3 weeks
  highest non-severely toxic dose: 10 mg/m^2
[16]; male dogs
  dose with testicular germinal epithelial abnormalities: 20 mg/m^2
[17]; Colo205
  single agent activity against advanced xenograft: complete regressions
[17]; i.p. q4d×3, at the MTD
  tumor regression: complete tumor regressions
[17]; i.p. q4d×3, doses as low as 25% of the MTD, majority of animals
  tumor regression: Partial tumor regressions
SKOV3
  IC50: 0.2 nM
In vitro Ames test
  genotoxic activity: did not show evidence of genotoxic activity
HT29 tumor xenografts
  TGD, second arm, single agents: 12 days
  mean tumor growth delay (TGD): 24 days
  mean time to endpoint (TTE), tumor volume=1000 mm^3: did not differ significantly from untreated control animals
[18]; HT-29
  single agent activity against advanced xenograft: tumor growth delay
[18]; i.p. q4d×3, time differential to tumor volume 1000 mm^3
  tumor growth delay (T-C1000): 25 days
MX1
  IC50: 0.06 nM
[19]; rat IV infusion
  dose with degenerative testicular changes not reversed 2 weeks after dosing: ≥ 18 mg/m^2
  dose with increased mitotic figures in many tissues: ≥ 36 mg/m^2
[19]; [23]
  MTD: 72 mg/m^2
  mortality: no mortality
[19]; rat, after a single dose
  dose at which mortality occurred: 18 mg/m^2
[19]; rat, after repeated weekly dosing
  dose at which mortality occurred: 12 mg/m^2

## COc1cc2c(cc1OC)CN(CCc1ccc(NC(=O)c3cccc4c(=O)c5cccc(OC)c5[nH]c34)cc1)CC2 [GF120918A]
[20]
  activity at 2 μM: ~30%

## CC(=O)O[C@H]1C(=O)[C@@]2(C)[C@H]([C@H](OC(=O)c3ccccc3)[C@]3(O)C[C@H](OC(=O)[C@H](O)[C@@H](NC(=O)c4ccccc4)c4ccccc4)C(C)=C1C3(C)C)[C@]1(OC(C)=O)CO[C@@H]1C[C@@H]2O [paclitaxel]
HT29 tumor xenografts
  mean time to endpoint (TTE), tumor volume=1000 mm^3: 59 days

## Cc1ccc(C(=O)N(CCCN)[C@@H](c2nc3cc(Cl)ccc3c(=O)n2Cc2ccccc2)C(C)C)cc1 [ispinesib, reference compound]
P388 (murine); Mus musculus, P388
  IC50: 19.7 nM
MV522; MV522
  IC50: 9.7 nM
HT29; Homo sapiens, HT-29
  IC50: 1.2 nM
Mouse KSP
  Ki: 0.76 nM
Other kinesins
  Ki: > 70000 nM
Colo205; Homo sapiens, COLO 205
  IC50: 0.18 nM
SKOV3; Homo sapiens, SK-OV-3
  IC50: 1 nM
MX1; Homo sapiens, MX1
  IC50: 2.8 nM

## CC(C)C[C@H](NC(=O)[C@H](Cc1ccccc1)NC(=O)c1cnccn1)B(O)O [bortezomib]
[13]; female, athymic nu/nu (nude), mouse, in vivo, ip, read-out: single agent MTD (q4d×3)
  MTD: ~1.5 mg/kg
HT29 tumor xenografts
  TGD, second arm, single agents: 9 days
  mean tumor growth delay (TGD): 9 days
  mean time to endpoint (TTE), tumor volume=1000 mm^3: did not differ significantly from untreated control animals
